These results are taken from patent US12421235B2, “Bridged tricyclic carbamoylpyridone compounds and uses thereof” (Gilead Sciences, Inc., priority 2020, dated 2025).

A short description of data set [1]: High throughput microsomal stability assay (human liver microsomes). Type of data set: in vitro ADME. Conditions: for HLM stability: human liver microsomes, 1 uM compound, NADPH + UDPGA cofactors, 37 C. In short, it runs like this: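 Compounds at 1 uM final, incubated at 37° C. with liver microsomes (2 mg/ml stock, alamethicin-treated) in pH 7.4 phosphate plus NADPH-regenerating/UDPGA cofactors; samples taken 0–70 min. Parent/IS peak-area ratios read by RapidFire QToF MS; half-life from linear fit of initial log decay, scaled to intrinsic clearance.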
Background: Liver microsomes are a subcellular fraction often used to study metabolism.

The nature of data set [2]: Cytotoxicity assay in MT-4 cells. The data set is classed as cell-based. Conditions: human, uninfected MT-4 cells, Cell Titer Glo. In short, it runs like this:
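Uninfected MT-4 cells were incubated with 1:3 serially diluted compound in RPMI/10% FBS for 5 days at 37° C. Viability was read by CellTiter-Glo luminescence, with 10 μM puromycin as the baseline cytotoxicity control. Values are the concentration giving a 50% decrease in luminescence, from sigmoidal dose-response fits.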

The subject of data set [3] is HIV-1 (IIIB) in MT-4 cells. The data set can be described thus: HIV MT-4 antiviral assay. Type of data set: cell-based. Conditions: Human immunodeficiency virus 1, MT4, 120 h, 5 days, Cell Titer Glo. In short, it runs like this:
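MT-4 cells infected with HIV-1 IIIB (1:250 dilution of concentrated stock) were incubated 5 days at 37 °C with compound in 1:3 serial dilutions in RPMI/10% FBS. Viability was read by CellTiter-Glo luminescence. EC50 was the concentration causing a 50% decrease in luminescence signal, from sigmoidal dose-response fits.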

The subject of data set [4] is pLai RLuc reporter virus in MT-4 cells. The data set can be described thus: HIV MT-4 serum shift antiviral reporter assay. Conditions: Human immunodeficiency virus 1, MT4, 72 h, read-out: RLUC CCM. Type of data set: cell-based. The essentials:
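MT-4 cells pre-infected 2 h with reporter virus, then dosed (1:3 dilutions) in medium with 10% FBS alone or plus 50% human serum; 72 h at 37 °C. Renilla luminescence read; EC50 = 50% signal decrease by sigmoidal fit, serum shift = EC50(HS)/EC50(no HS).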
(A reporter such as luciferase makes a cellular process visible.)

A word on the CC50: it is the concentration giving 50% cytotoxicity. A lower CC50 goes with harm at low concentration. For `CO[C@@H]1C=C[C@H](C)N2C[C@H]1n1cc(C(=O)NCc3ccc(F)c(Cl)c3F)c(=O)c(O)c1C2=O` [Example 10, (3S,6R,7R)—N-(3-chloro-2,4-difluorobenzyl)-12-hydroxy-6-methoxy-3-methyl-1,11-dioxo-1,6,7,11-tetrahydro-3H-2,7-methanopyrido[1,2-a][1,4]diazonine-10-carboxamide], the HLM stability in data set [1] was determined as 6.67 mL/min/kg. For the same compound, half-maximal cytotoxicity in data set [2] (CC50 at 5 days) was put at 4020 nM. Further, the figures for the EC50 in data set [3] and in data set [4] were 1.2 nM and 0.28 nM, respectively.

Consider `C[C@H]1[C@H]2CO[C@H](C2)[C@H]2CN1C(=O)c1c(O)c(=O)c(C(=O)NCc3ccc(F)cc3F)cn12` [Example 45, (3S,4S,7R,8R)—N-(2,4-difluorobenzyl)-13-hydroxy-3-methyl-1,12-dioxo-1,4,5,7,8,12-hexahydro-3H-2,8:4,7-dimethanopyrido[1,2-d][1,4,7]oxadiazecine-11-carboxamide], for which the HLM stability in data set [1] turned out to be 2.83 mL/min/kg. In addition, in data set [2], half-maximal cytotoxicity (CC50 at 5 days) was put at 12400 nM. For the same compound, the figures for the EC50 in data set [3] and in data set [4] were 1.9 nM and 0.46 nM, respectively.

As for `CO[C@H]1C[C@H](F)[C@H](C)N2C[C@H]1n1cc(C(=O)NCc3c(F)cc(F)cc3F)c(=O)c(O)c1C2=O` [Example 40, (3S,4S,6S,7R)-4-fluoro-12-hydroxy-6-methoxy-3-methyl-1,11-dioxo-N-(2,4,6-trifluorobenzyl)-1,4,5,6,7,11-hexahydro-3H-2,7-methanopyrido[1,2-a][1,4]diazonine-10-carboxamide], the HLM stability in data set [1] came out at 4.67 mL/min/kg. Further, the CC50 at 5 days in data set [2] was found to be 19600 nM. For the same compound, the EC50 in data set [3] was 1.1 nM; in data set [4] it was 2.87 nM.

As to `CCO[C@H]1CC[C@H](C)N2C[C@H]1n1cc(C(=O)NCc3c(F)cc(F)cc3F)c(=O)c(O)c1C2=O` [Example 26, (3S,6S,7R)-6-ethoxy-12-hydroxy-3-methyl-1,11-dioxo-N-(2,4,6-trifluorobenzyl)-1,4,5,6,7,11-hexahydro-3H-2,7-methanopyrido[1,2-a][1,4]diazonine-10-carboxamide], the HLM stability in data set [1] was 3.67 mL/min/kg. Besides, the CC50 at 5 days in data set [2] is 44300 nM. For the same compound, the EC50 in data set [3] worked out at 4.4 nM; in data set [4], 0.92 nM.

On to `C[C@H]1CC[C@@](C)(O)[C@H]2CN1C(=O)c1c(O)c(=O)c(C(=O)NCc3c(F)cc(F)cc3F)cn12` (single isomer, unassigned) [Example 32], for which the HLM stability in data set [1] worked out at 9 mL/min/kg. For the same compound, the 50% cytotoxic concentration (CC50) at 5 days in data set [2] stood at 34600 nM. Besides, the EC50 in data set [3] was 1.9 nM; in data set [4], 0.43 nM.

Turning to `C[C@H]1C=C[C@](C)(O)[C@H]2CN1C(=O)c1c(O)c(=O)c(C(=O)NCc3ccc(F)cc3F)cn12` [Example 17, (1R,10S,13S)—N-[(2,4-difluorophenyl)methyl]-6,13-dihydroxy-10,13-dimethyl-5,8-dioxo-2,9-diazatricyclo[7.4.1.02,7]tetradeca-3,6,11-triene-4-carboxamide], the HLM stability in data set [1] came out at 2.83 mL/min/kg. In addition, in data set [2], the CC50 at 5 days was found to be 31400 nM. Also, the EC50 in data set [3] is 3 nM; in data set [4], 1.33 nM.

Consider `C[C@H]1CC[C@@](O)(CF)[C@H]2CN1C(=O)c1c(O)c(=O)c(C(=O)NCc3c(F)cc(F)cc3F)cn12` [Example 44, (3S,6S,7R)-6-(fluoromethyl)-6,12-dihydroxy-3-methyl-1,11-dioxo-N-(2,4,6-trifluorobenzyl)-1,4,5,6,7,11-hexahydro-3H-2,7-methanopyrido[1,2-a][1,4]diazonine-10-carboxamide], for which, in data set [1], the HLM stability turned out to be 3.67 mL/min/kg. In data set [2], this compound yielded a CC50 at 5 days of 44700 nM. Moreover, the EC50 in data set [3] was 4 nM; in data set [4], 1.9 nM.

As to `CO[C@@H]1C=C[C@H](C)N2C[C@H]1n1cc(C(=O)NCc3c(F)cc(F)cc3F)c(=O)c(O)c1C2=O` [Example 4, (3S,6R,7R)-12-hydroxy-6-methoxy-3-methyl-1,11-dioxo-N-(2,4,6-trifluorobenzyl)-1,6,7,11-tetrahydro-3H-2,7-methanopyrido[1,2-a][1,4]diazonine-10-carboxamide], in data set [1], the HLM stability is 2.33 mL/min/kg. Moreover, the “MS Cl improvement” value in data set [1] (relative to compound C) is 3.6 times relative to compound C. For the same compound, the half-maximal cytotoxic concentration (CC50) at 5 days in data set [2] is 11200 nM. In addition, the EC50 was 1.1 nM in data set [3] and 0.34 nM in data set [4].

For the compound `CC[C@]1(O)CC[C@H](C)N2C[C@H]1n1cc(C(=O)NCc3c(F)cc(F)cc3F)c(=O)c(O)c1C2=O` [Example 28, (3S,6S,7R)-6-ethyl-6,12-dihydroxy-3-methyl-1,11-dioxo-N-(2,4,6-trifluorobenzyl)-1,4,5,6,7,11-hexahydro-3H-2,7-methanopyrido[1,2-a][1,4]diazonine-10-carboxamide], the HLM stability in data set [1] was 5.67 mL/min/kg. Further, the CC50 at 5 days in data set [2] is 24400 nM. Moreover, the EC50 in data set [3] was determined as 4.1 nM; in data set [4], 0.96 nM.

In the case of `CO[C@H]1C=C[C@H](C)N2C[C@H]1n1cc(C(=O)NCc3ccc(F)cc3F)c(=O)c(O)c1C2=O` [Example 19, (3S,6S,7R)—N-(2,4-difluorobenzyl)-12-hydroxy-6-methoxy-3-methyl-1,11-dioxo-1,6,7,11-tetrahydro-3H-2,7-methanopyrido[1,2-a][1,4]diazonine-10-carboxamide], the HLM stability in data set [1] came out at 7.83 mL/min/kg. The compound further registered a 50% cytotoxic concentration (CC50) at 5 days in data set [2] of 20000 nM. Further, the EC50 was 1.1 nM in data set [3] and 0.38 nM in data set [4].

Regarding `CO[C@@H]1C[C@H](F)[C@H](C)N2C[C@H]1n1cc(C(=O)NCc3c(F)cc(F)cc3F)c(=O)c(O)c1C2=O` [Example 37, (3S,4S,6R,7R)-4-fluoro-12-hydroxy-6-methoxy-3-methyl-1,11-dioxo-N-(2,4,6-trifluorobenzyl)-1,4,5,6,7,11-hexahydro-3H-2,7-methanopyrido[1,2-a][1,4]diazonine-10-carboxamide], the HLM stability in data set [1] turned out to be 2.83 mL/min/kg. In data set [2], this compound showed a CC50 at 5 days of 14800 nM. Besides, the EC50 in data set [3] was 1.4 nM; in data set [4] it was 0.65 nM.

Take `C[C@H]1CC[C@H](O)[C@H]2CN1C(=O)c1c(O)c(=O)c(C(=O)NCc3ccc(F)cc3F)cn12` [Example 16, (3S,6S,7R)—N-(2,4-difluorobenzyl)-6,12-dihydroxy-3-methyl-1,11-dioxo-1,4,5,6,7,11-hexahydro-3H-2,7-methanopyrido[1,2-a][1,4]diazonine-10-carboxamide]: the HLM stability in data set [1] was 1.83 mL/min/kg. In data set [2], this compound had a half-maximal cytotoxic concentration (CC50) at 5 days of 41400 nM. In addition, the values for the EC50 in data set [3] and in data set [4] were 2.6 nM and 1.14 nM, respectively.

For `CO[C@H]1C[C@@H](F)[C@H](C)N2C[C@H]1n1cc(C(=O)NCc3c(F)cc(F)cc3F)c(=O)c(O)c1C2=O` [Example 39, (3S,4R,6S,7R)-4-fluoro-12-hydroxy-6-methoxy-3-methyl-1,11-dioxo-N-(2,4,6-trifluorobenzyl)-1,4,5,6,7,11-hexahydro-3H-2,7-methanopyrido[1,2-a][1,4]diazonine-10-carboxamide], the HLM stability in data set [1] amounted to 4.67 mL/min/kg. Further, in data set [2], the 50% cytotoxic concentration (CC50) at 5 days is 11700 nM. For the same compound, the EC50 in data set [3] and in data set [4] was 1.5 nM in each case.
